Assay: Apparent permeability across apical to basolateral side in human Caco-2 cells measured after 60 to 120 mins
Type: ADME, cell-based
Conditions: time 60-120 min

permeability: Permeable
SMILES: CC(C)CN1CC(=O)N[C@@H](Cc2ccccc2)C(=O)NCCC[C@@H](C)C(=O)N[C@@H](C)C1=O
